Experimental data as given in PMC11915509, “Small molecule inhibitors of hnRNPA2B1–RNA interactions reveal a predictable sorting of RNA subsets into extracellular vesicles” (Nucleic Acids Research, 2025).
Several values for one entry are separate records, joined by “and”; a condition that tells them apart may be missing. Equal entries are not always repeated.

Assays:
[1] = target: T1, hnRNPA2B1-EXOmotif interaction (Homo sapiens, UniProt P22626); test: AlphaScreen dose-response, inhibition of hnRNPA2B1-EXOmotif RNA interaction; type: binding; details: AlphaScreen dose-response with RNA EXOmotif, one site fitting
T1 construct: purified a human full-length, GST-tagged protein expressed in Escherichia coli cells; made in house; host or cells: E. coli BL21 (DE3)
Description: The assays were performed in OptiPlate-384-well plates (PerkinElmer, 6007299) in 20 μl final volume. The ligands were diluted in AlphaBuffer [25 mM HEPES, pH 7.4, 100 mM NaCl, 0.01% bovine serum albumin (BSA)] and tested using AlphaScreen GST Detection Kit (PerkinElmer, 6760603C). […] For the reactions, 4 μl of the RNA probes were first added to the plate, then 16 μl of a mix containing all the other components was added, and the plate was incubated at room temperature for 1 h in the dark.
The high-throughput drug screening was performed in a total volume of 20 μl using 17 nM of RNA EXO motif (chosen below the hooking point), 30 nM GST-hnRNPA2B1, and 250 nM of compounds belonging to mass spectrometry (MS) Spectrum Collection library (MicroSource, 2000 compounds). Compounds were dispensed into white 384-well Optiplates (PerkinElmer) using Echo 650 acoustic dispenser (Beckman Coulter) followed by the addition of protein in Alpha Buffer using the EL460 dispenser (BioTek). After 15 min of incubation, RNA probes were added by Echo 650 acoustic dispenser, while Donor and Acceptor beads from the GST detection kit (Perkin Elmer) were dispensed by EL460 instrument. Following 60 min of incubation, Alpha signal was detected using Enspire plate reader instrument (PerkinElmer). The raw Alpha counts were normalized to Dimethyl sulfoxide (DMSO)-treated controls within every plate.

EXO-motif RNA = test: Fluorescence indicator displacement (FID) melting curve, EXO-motif RNA; type: binding; details: 5 μM RNA, 25 μM compound, Midori green
Description: Five μM RNA EXO motif were mixed with 25 μM compounds in AlphaBuffer (25 mM HEPES, pH 7.4, 100 mM NaCl, 0.01% BSA) to a final volume of 20 μl. Absorbance spectrum (200–530 nm) was measured using Tecan Spark® microplate reader with a NanoQuant plate at room temperature. In fluorescence indicator displacement (FID), a 2× final concentration of Midori green advanced (Resnova) was added to the samples and the melting curve measured using Bio-Rad CFX96™ System from 30°C to 90°C.

[2] = test system: EV miR-221 from NSC34 cells; test: ddPCR of miR-221-3p in NSC34-derived EV-RNA; type: cell-based, mouse; details: NSC34-derived EVs, 6 h treatment
Description: EVs were isolated from HEK293T, NSC34, and smNPC-derived motor neurons using nickel-based isolation (NBI) or differential ultracentrifugation (UC). NBI protocol was performed as already described. Briefly, after a first centrifugation step at 2800 × g for 10 min, nickel beads were incubated for 30 min with serum-free media collected from cells in a ratio of 25 μl of beads per ml of medium. After a 2 min centrifugation at 600 g, particles were eluted from the beads by adding 1× elution buffer made of Solution A [16 mM ethylenediaminetetraacetic acid (EDTA), UltraPure, pH 8.0, Thermo Fisher] and Solution B (10 mM NaCl, 225 μM citric acid, Sigma–Aldrich) diluted five times in phosphate-buffered saline (PBS). After 15 min incubation at 28°C in a thermoshaker, the EVs were retrieved by 1-min centrifugation at 1800 × g and subjected to the following characterization. NBI was used to recover polydisperse EVs and include the RNA contribution from these for reverse proteomics experiments. The EV-RNA for reverse proteomics was pooled from three consecutive EV isolation procedures performed on a total of 30 T75 flasks (10 flasks each) of NSC34 cells grown until 80% confluence under standard conditions before washing with PBS and incubating with serum-free medium with glutamine and antibiotics. Differential UC was applied as an alternative EV isolation protocol to confirm the detection of hnRNPA2B1 protein. UC was performed by a SW 32 Ti swinging bucket rotor in an Optima XPN-100 ultracentrifuge (Beckman Coulter, Brea, CA, USA). The cell-conditioned serum-free media, after the first centrifugation step at 2800 × g for 10 min, was put in open-top Ultra-Clear centrifuge tubes (Beckman Coulter-344058) and subjected to 100 000 × g (100 K) UC for 70 min at 4°C under vacuum, with or without an additional step at 10 000 × g (10 K) to first sediment larger particles. Then the supernatant was removed, and the pellet was resuspended in 0.22 μm filtered PBS. Differential UC alone, consisting of 2800 × g for 10 min and 100 000 × g for 70 min, was applied for experiments reported in Fig. 5. […]
RNA from cells was extracted using TRI Reagent® (T9424, Sigma) following the manufacturer’s instructions. Thermo Fisher Nanodrop 2000 Spectrophotometer was used to assess the purity and quantity of extracted RNA. […] The elution was in 10–20 μl of RNase-free water and the RNA profiling and quantification was assessed by Agilent 2100 Bioanalyzer and RNA 6000 Pico Kit (5067-1513). Cell- and EV-RNAs were also analysed with DNF-472 HS RNA (15 nt) Kit (Agilent Technologies, Santa Clara, CA), according to the manufacturer. […] Results were analysed with Agilent ProSize data analysis software, that allows the analysis of RNA size, concentration and quality. […]

HEK293T cells = test: Cell viability dose response, HEK293T; type: cell-based, human; details: 24 hr
Description: Supplementary Figure S6. Cell viability upon treatment with Hematein. Cells were exposed to increasing concentrations of Hematein or DMSO (control vehicle) for 24 hr under standard growth conditions. […] In both cases a range of drug tolerance was observed before the drop of viability over 10 µM. The graph indicates mean and SD of two independent experiments.

NSC34 cells = test: Nanodrop quantification of total intracellular RNA after treatment; type: cell-based, mouse; details: 6 h treatment
Description: RNA from cells was extracted using TRI Reagent® ([…], Sigma) following the manufacturer's instructions. Thermo Fisher Nanodrop 2000 Spectrophotometer was used to assess the purity and quantity of extracted RNA. RNA from EVs was extracted using Single Cell RNA Isolation Kit (51800, Norgen) following the manufacturer's protocol. The elution was in 10-20 μl of RNase-free water and the RNA profiling and quantification was assessed by Agilent 2100 Bioanalyzer and RNA 6000 Pico Kit (5067-1513). Cell- and EV-RNAs were also analysed with DNF-472 HS RNA (15 nt) Kit (Agilent Technologies, Santa Clara, CA), according to the manufacturer. Briefly, 2 μl of RNA samples concentrated within a range of 50-5000 pg/μl and RNA Ladder were added to Diluent Marker, denatured at 70°C for 2 min and loaded. Results were analysed with Agilent ProSize data analysis software, that allows the analysis of RNA size, concentration and quality. Through a Peak Analysis it was possible to access the concentration of each peak recognized by the software. Half a nanogram of extracted RNA from cells and EVs was used as input for complementary DNA (cDNA) synthesis. cDNA was produced using TaqManTM Advanced miRNA cDNA Synthesis Kit (Applied BiosystemsTM, A28007) following manufacturers' instructions and used for droplet digital polymerase chain reaction (PCR) experiments.

T1 sequence (P22626 whole entry): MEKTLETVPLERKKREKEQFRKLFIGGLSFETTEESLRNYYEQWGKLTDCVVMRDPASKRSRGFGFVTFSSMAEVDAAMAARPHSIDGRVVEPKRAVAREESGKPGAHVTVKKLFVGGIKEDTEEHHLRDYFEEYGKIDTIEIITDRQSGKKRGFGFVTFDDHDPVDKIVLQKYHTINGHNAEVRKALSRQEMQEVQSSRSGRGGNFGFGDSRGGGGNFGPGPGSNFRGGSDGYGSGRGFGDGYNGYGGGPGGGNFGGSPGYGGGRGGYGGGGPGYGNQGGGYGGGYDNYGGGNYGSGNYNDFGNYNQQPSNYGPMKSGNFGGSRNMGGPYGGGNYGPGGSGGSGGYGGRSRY

SMILES: O=C1C=C2CC3(O)COc4c(ccc(O)c4O)C3=C2C=C1O (stereo not drawn) [H, hematein]
- IC50 [1]: ~100 nM and 99.9 nM
- thermal shift of the EXO-motif RNA (EXO-motif RNA): 9.5 °C
- vesicular miR-221, copy number normalized on Y3 RNA and DMSO [2]: vesicular depletion
- concentration of drop of viability (HEK293T cells): over 10 µM
- IC50 (HEK293T cells; Homo sapiens, HEK-293T): ~41000 nM
- accumulation of intracellular RNAs (NSC34 cells): significantly higher
